The subject of assay [1] is experimental renal candidiasis. The following applies: rats, orally supplemented to the diet; evident at very low dose, disappearing at a higher dose level; cited from earlier work.
Assay [2] has as its system Candida. In words: Randomized double-blind placebo-controlled study of preventing Candida superinfection after standard metronidazole treatment. The format is in vivo, patients. Here is the method: Two hundred patients with a negative microbiology of their vaginal specimen after a standard metronidazole treatment have been included in a controlled study aimed at the evaluation of ascorbic acid capability to prevent Candida superinfection in those patients. The study was randomized, double blind, parallel groups versus placebo. As active treatment, a 6-day course of vaginal tablets, containing 250 mg silicon-coated ascorbic acid as per the Example 2, was given once monthly for 3 months starting after menses. Placebo was undistinguishable from active treatment. Ninety-five patients in the active group and 92 respectively in the placebo group terminated the study and were included in the efficacy analysis. […] The protection factor of ascorbic acid against Candida superinfection in this experiment was 40%.

Assay [3] relates to Candida. Nature of the assay: Double-blind placebo-controlled study of preventing Candida reinfection after miconazole in women with recurrent vaginal candidiasis. The format is in vivo. The text has this: Forty women with an exacerbation of recurrent vaginal candidiasis underwent a follow up preventative therapy with ascorbic acid. Most important inclusion criteria were: adult women in fertile age (18-50); ≧3 episodes of acute vaginal candidiasis in the last 12 months; acute vaginal candidiasis in the last 14 days; eradication of Candida (fresh examination) after an appropriate miconazole treatment. Exclusion criteria were: severe vaginal infections; HIV positivity; diabetes; pregnant women. The design was double blind, parallel groups versus placebo.
After completion of the standard treatment with miconazole, all the responders (patients with eradication of Candida at the end of treatment) were randomized to a standardized preventative vaginal application of ascorbic acid (in form of gel, containing 7.1% ascorbic acid as the only active ingredient, same composition as per the Example 1) or to an undistinguishable placebo. The product was applied once daily in the evening, before going to bed, for 6 consecutive days. The 6-day cycle was repeated monthly for 6 consecutive months, starting on the first month immediately after patient randomization; during the following 5 months, the therapeutic cycle with ascorbic acid was started on the day after termination of cyclic menses. Primary endpoint of the study was the occurrence of episodes of Candida reinfection, confirmed by fresh examination of the vaginal smear. In case of reinfection, this was treated with a further standard miconazole treatment and the follow up with ascorbic acid was continued immediately after confirmation of microbiological eradication. All patients in the ascorbic acid group terminated the study, 2 patients of placebo group were lost to follow up. […] The protection factor of ascorbic acid against Candida reinfection was 46% in this investigation.

Turning to `O=C1O[C@H]([C@@H](O)CO)C(O)=C1O` [ascorbic acid, L-ascorbic acid], the “effect on the resistance to experimental renal candidiasis” value in assay [1] is recorded as “inconclusive”. For the same molecule, the “patients with Candida superinfection (percent of group)” value in assay [2] (vaginal tablets with 250 mg silicon-coated ascorbic acid, 6-day course once monthly for 3 months) is given as 9%. Also, the “patients with Candida superinfection” value in assay [2] (vaginal tablets with 250 mg silicon-coated ascorbic acid, 6-day course once monthly for 3 months, 95 patients analysed) is 9 patients. The “protection factor against Candida superinfection” value in assay [2] (versus placebo, 3 months) worked out at 40%. Besides, the episodes of reinfection in assay [3] (7.1% ascorbic acid vaginal gel once daily for 6 days, cycle repeated monthly for 6 months, reinfection confirmed by fresh examination of vaginal smear) was determined as 15 episodes. Besides, in assay [3] (7.1% ascorbic acid vaginal gel, 6-day cycles monthly for 6 months), the “acute infection:patient rate” value is 0.75 /6 months. In addition, the “protection factor against Candida reinfection” value in assay [3] (versus placebo, 6 months) was 46%.

(Values after US7863326B2, “Pharmaceutical compositions comprising ascorbic acid for the treatment of fungal superinfections and fungal recurrences” (Polichem S.A., priority 2003, dated 2011).)
